Among the data in patent publication US20190105337A1, “METHODS OF TREATING BACTERIAL INFECTIONS” (priority 2015, published 2019) are ELF concentrations values, retold here.

The data set in a line: Example 6: plasma, epithelial lining fluid (ELF) and alveolar macrophage (AM) concentrations at bronchoscopy with BAL. The settings on record: 8-hour sampling time. Here is the method:
A total of twenty-five (n=25) male and female subjects who met the study entry criteria and completed all phases of the pharmacokinetic study were included in this pharmacokinetic analysis. […] Blood samples were collected to measure drug concentrations in plasma prior to (time 0), and at 1.5, 2.95, 3.083, 3.25, 3.5, 4, 6, and 8 hours after the start of a 3-hour intravenous infusion of the third combination dose.
Urea has been commonly used as an endogenous marker to estimate the apparent volume of ELF. Blood samples to determine plasma urea concentrations were obtained just prior to scheduled bronchoscopy. Aliquots of BAL were obtained to determine urea concentrations in BAL and cell count with differential. The standardized bronchoscopy with BAL procedure for the collection of intrapulmonary samples has been previously described in the references listed below.
(Reports MC14B-0013, MC14B-0015, MC14I-011, and MC14I-0012). The urea concentrations in plasma and BAL were performed with a microplate-based method with an 0-phthalaldehyde chromogenic solution at MicroConstants, Inc., San Diego, Calif.
The calculations of ELF volume and drug concentrations in ELF and AM were performed with BAL supernatant and pulmonary (alveolar) cells (“cell pellet”) from aspirates recovered from the 2nd, 3rd, and 4th instillations (BAL2). The concentration of drug (ABXELF) in the epithelial lining fluid (ELF) was determined as follows:
[…]
VELF is derived from the following:
where UreaBAL is the concentration of urea in BAL fluid and UreaP is the concentration of urea in plasma.
The concentration of drug (ABXAM) in the alveolar cells (AC) was determined as follows:
Differential cell count was performed to determine the number of macrophages present. A mean macrophage cell volume of 2.42 μl/106 cells was used in the calculations for volume of alveolar cells in the pellet suspension.
The concentration ratios of ELF and AM to the simultaneous plasma concentrations were calculated for each subject and summarized for each group at each sampling time. […] The 8-hour sampling time was also used as a value at time zero for determining the area term of plasma, ELF, and AM. The AUC0-8 for each matrix was determined with the linear trapezoidal method. The ratio of AUC0-8 of ELF to plasma and AM to plasma were calculated.

As to `C[C@@H](O)[C@@H](C(=O)O)[C@@H]1NC(C(=O)O)=C(S[C@@H]2CN[C@H](C(=O)N(C)C)C2)[C@@H]1C` [meropenem open-lactam], the ELF concentrations result is recorded as “below the quantifiable limit”.
